US20250042894A1, “PROTEIN TYROSINE PHOSPHATASE INHIBITORS AND METHODS OF USE THEREOF” (Calico Life Sciences LLC, priority 2021, published 2025)
Where two headings read alike, the source gives them in different places.

Experiments:
[1] = target: T1, His tagged PTPN2 (TC45) protein (Homo sapiens, UniProt P17706); experiment: Mobility Shift Assay (MSA) for PTPN2 inhibitors; assay type: biochemical; details: for IC50: enzyme 0.5 nM, substrate 2 μM, 10 minutes preincubation at room temperature
T1 construct: His; made in house
T1 sequence (P17706 1-387 isoform P17706-2): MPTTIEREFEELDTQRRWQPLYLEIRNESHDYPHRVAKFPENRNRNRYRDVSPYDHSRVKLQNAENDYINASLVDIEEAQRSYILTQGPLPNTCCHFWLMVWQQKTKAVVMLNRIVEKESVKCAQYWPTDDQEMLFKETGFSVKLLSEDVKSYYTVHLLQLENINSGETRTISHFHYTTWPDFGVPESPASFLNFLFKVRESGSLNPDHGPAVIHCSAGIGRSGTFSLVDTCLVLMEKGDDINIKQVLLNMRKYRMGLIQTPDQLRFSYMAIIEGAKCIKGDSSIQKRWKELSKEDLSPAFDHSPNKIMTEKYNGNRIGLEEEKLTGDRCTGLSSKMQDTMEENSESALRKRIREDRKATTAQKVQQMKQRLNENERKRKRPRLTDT
Method in brief: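 Enzyme (0.5 nM) preincubated 10 min at RT with compound (12-point, 1:3 dilution) in 50 mM HEPES pH 7.5, 10 mM EDTA, 2 mM DTT; OG488-labelled phospho-insulin-receptor peptide substrate (2 μM) then added for 10 min. After quench, dephosphorylation measured by microfluidic mobility shift (ex 488/em 530 nm); IC50 from % inhibition.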

[2] = target: T2, His tagged full-length PTPN1 protein (Homo sapiens, UniProt P18031); experiment: Mobility Shift Assay (MSA) for PTPN1 inhibitors; assay type: biochemical; details: enzyme 0.5 nM, substrate 2 μM, 10 minutes preincubation at room temperature
T2 construct: His; made in house
T2 sequence (P18031 1-435): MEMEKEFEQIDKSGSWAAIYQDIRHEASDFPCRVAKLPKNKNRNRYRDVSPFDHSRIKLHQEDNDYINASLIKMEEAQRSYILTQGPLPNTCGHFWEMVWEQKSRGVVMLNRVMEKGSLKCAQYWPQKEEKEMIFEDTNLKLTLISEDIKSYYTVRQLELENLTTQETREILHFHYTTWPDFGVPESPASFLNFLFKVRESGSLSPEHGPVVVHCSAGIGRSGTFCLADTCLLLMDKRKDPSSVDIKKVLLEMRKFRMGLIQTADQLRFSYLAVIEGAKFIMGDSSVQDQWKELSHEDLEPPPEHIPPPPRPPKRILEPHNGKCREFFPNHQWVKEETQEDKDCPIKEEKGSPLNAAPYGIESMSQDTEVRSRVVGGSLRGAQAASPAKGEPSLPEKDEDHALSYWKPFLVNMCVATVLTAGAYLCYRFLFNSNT
Method in brief: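 Full-length His-tagged human PTPN1 (0.5 nM) was pre-incubated 10 min at RT with compound (12-point, 1:3) in HEPES pH 7.5 buffer with EGTA, EDTA, Tween-20 and DTT. Fluorescent phospho-insulin-receptor peptide (2 μM) was then added for 10 min. After quench, dephosphorylation was measured by microfluidic mobility shift, and IC50 was taken from % inhibition.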

[3] = system: IFNγ-induced STAT1 phosphorylation (pSTAT1) in B16F10 cells; experiment: B16F10 Phospho-STAT1 HTRF proximal pharmacodynamic (PD) assay; assay type: cell-based, murine; details: for EC50: B16-F10
Method in brief: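 Murine B16F10 melanoma cells dosed 3 h at 37 °C (10-point, 3-fold dilution from 50 μM top dose), then stimulated 10 min with recombinant mouse IFNγ (100 nM final) and stopped with 3.3 μM staurosporine for 1 h. pSTAT1 in lysates detected by HTRF (Eu cryptate/d2 antibodies, 3 h RT, 665 nm emission); EC50 from dose-response curves.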

[4] = Table 2, 3 hours compound, then mouse IFNγ 100 nM 10 minutes, top dose 50 μM, read-out: B16F10 IFNγ Induced pSTAT1 EC50

Row | Compound | IC50 [1] [nM] | IC50 [2] [nM] | EC50 [3, 4] [nM] | Thiochromane x-fold>potency biochemical ([1]; Table 3, PTPN2 MSA IC50 of chromane comparator over thiochromane) | EC50 ([3]; Mus musculus, Table 3, B16F10 cells, IFNγ-induced, thiochromanes (X = S) and chromane comparators (X = O), read-out: pSTAT1 EC50) [nM] | Thiochromane x-fold>potency cellular ([3]; Table 3, pSTAT1 EC50 of chromane comparator over thiochromane)
1 | CC(C)CN[C@@H]1CSc2cc(O)c(N3CC(=O)NS3(=O)=O)c(F)c2C1 [Compound 113, 5-{(3S)-5-fluoro-7-hydroxy-3-[(2-methylpropyl)amino]-3,4-dihydro-2H-1-benzothiopyran-6-yl}-1λ^6,2,5-thiadiazolidine-1,1,3-trione] | 10 to 100 | 10 to 100 | 2030 |  |  | 
2 | CC(F)(F)CCCN[C@@H]1CSc2cc(O)c(N3CC(=O)NS3(=O)=O)c(F)c2C1 [Compound 129, 5-{(3S)-3-[(4,4-difluoropentyl)amino]-5-fluoro-7-hydroxy-3,4-dihydro-2H-1-benzothiopyran-6-yl}-1λ^6,2,5-thiadiazolidine-1,1,3-trione] | < 10 | < 10 | 589 |  |  | 
3 | CCCCN[C@@H]1CSc2cc(O)c(N3CC(=O)NS3(=O)=O)c(F)c2C1 [Compound 112, 5-[(3S)-3-(butylamino)-5-fluoro-7-hydroxy-3,4-dihydro-2H-1-benzothiopyran-6-yl]-1λ^6,2,5-thiadiazolidine-1,1,3-trione] | < 10 | 10 to 100 | 1210 |  |  | 
4 | CC(CN[C@@H]1CSc2cc(O)c(N3CC(=O)NS3(=O)=O)c(F)c2C1)C1CC1 (stereo partly drawn) [Compound 133, 5-{(3S)-3-[(2-cyclopropylpropyl)amino]-5-fluoro-7-hydroxy-3,4-dihydro-2H-1-benzothiopyran-6-yl}-1λ^6,2,5-thiadiazolidine-1,1,3-trione] | < 10 | < 10 | 762 |  |  | 
5 | O=C1CN(c2c(O)cc3c(c2F)C[C@H](NCCCc2ccccc2)CS3)S(=O)(=O)N1 [Compound 136, 5-{(3S)-5-fluoro-7-hydroxy-3-[(3-phenylpropyl)amino]-3,4-dihydro-2H-1-benzothiopyran-6-yl}-1λ^6,2,5-thiadiazolidine-1,1,3-trione] | 10 to 100 | 10 to 100 | 27600 | 0.8 | 27600 | >1.8
6 | CC(C)=CCN[C@@H]1CSc2cc(O)c(N3CC(=O)NS3(=O)=O)c(F)c2C1 [Compound 122, 5-{(3S)-5-fluoro-7-hydroxy-3-[(3-methylbut-2-en-1-yl)amino]-3,4-dihydro-2H-1-benzothiopyran-6-yl}-1λ^6,2,5-thiadiazolidine-1,1,3-trione] | 10 to 100 | 10 to 100 | 6390 |  |  | 
7 | CC1(CCN[C@@H]2CSc3cc(O)c(N4CC(=O)NS4(=O)=O)c(F)c3C2)CC1 [Compound 132, 5-[(3S)-5-fluoro-7-hydroxy-3-{[2-(1-methylcyclopropyl)ethyl]amino}-3,4-dihydro-2H-1-benzothiopyran-6-yl]-1λ^6,2,5-thiadiazolidine-1,1,3-trione] | < 10 | 10 to 100 | 1580 |  |  | 
